This is an account of results in patent US20050009005A1, “Methods of using quantitative lipid metabolome data” (Lipomics Technologies, Inc., priority 2001, published 2005).

A short description of data set [1]: Body and adipose tissue weight of CL316,243-treated mice (trial 2, FIG. 3). Format: in vivo. The source says: FIG. 3 is a pair of bar graphs showing the body (FIG. 3a) and adipose (FIG. 3b) weights of mice treated with CL316,243 (hatched bars), and corresponding controls(solid bars).
In trial 2, male, inbred NON mice were fed a control with or without the presence of the β-3 adrenergic agonist CL316,243 for four weeks (at 0.001% CL316,243 by weight in the dietary chow).
In both studies, five treated and five control mice were used. Following the treatments and the killing of the mice, tissues and plasma were taken, chilled to −80 ° C. and shipped to the analysis laboratory at Lipomics Technologies in a frozen state.
Tables 7 and 8 show the concentrations of lipid metabolites present in adipose, plasma, heart and liver tissues in mice treated with CL3 16,243 and their controls. In Tables 5 and 7, the data are expressed as nanomoles per gram of tissue or plasma. In tables 6 and 8, the data are expressed as a percentage of total fatty acids within each lipid class.

For data set [2] the following is noted: patients taking rosiglitazone; Fuchtenbebusch et al. 2000; cited from earlier work.

For `C[C@H](Cc1ccc2c(c1)OC(C(=O)[O-])(C(=O)[O-])O2)NC[C@H](O)c1cccc(Cl)c1.[Na+].[Na+]` [CL316,243], in data set [1] (CL316,243 4 weeks vs controls (FIG. 3a)), the mouse body weight entry was “significant decrease”. Besides, the adipose tissue weight entry in data set [1] (CL316,243 4 weeks vs controls (FIG. 3b)) is “significant decrease”.

Turning to `CN(CCOc1ccc(CC2SC(=O)NC2=O)cc1)c1ccccn1` (stereo not drawn) [rosiglitazone], the “body weight of patients” value in data set [2] is on record as “gain weight”.
